The series in a line: aziridine aldehyde dimer (S-serine-type dimer 3, parent) + tBuNC multicomponent (disrupted Ugi) head-to-tail macrocyclisation of N-terminal Pro peptides; linker inserts CH-CH-N between Pro N and C-terminal C=O (forms Pro N-C bond and C-terminal acyl aziridine N-C(=O) bond). As to conditions: the molecule shown is the open-chain precursor, TFE, 100.0 mM.

For `CC(C)C[C@H](NC(=O)CNC(=O)[C@@H]1CCCN1)C(=O)NCC(=O)N[C@H](Cc1ccccc1)C(=O)O` [H-Pro-Gly-Leu-Gly-D-Phe-OH], the ring closure, isolated yield (18-membered ring, 4.0 h) was found to be 0%.

On to `CC(C)C[C@H](NC(=O)CNC(=O)[C@@H]1CCCN1)C(=O)N[C@@H](C)C(=O)N[C@@H](Cc1ccccc1)C(=O)O` [H-Pro-Gly-Leu-Ala-Phe-OH], for which, under “18-membered ring, 6.0 h”, the ring closure, isolated yield amounted to 9%.

For `CC(C)C[C@H](NC(=O)CNC(=O)[C@@H]1CCCN1)C(=O)NCC(=O)N[C@@H](CCCCNC(=O)OC(C)(C)C)C(=O)O` [H-Pro-Gly-Leu-Gly-Lys(Boc)-OH], for the setting “18-membered ring, 6.0 h”, the ring closure, isolated yield came out at 23%. Regarding `CC(C)C[C@H](NC(=O)[C@H](COC(C)(C)C)NC(=O)C[C@@H]1CCCN1)C(=O)N[C@@H](Cc1ccc(OC(C)(C)C)cc1)C(=O)N[C@@H](Cc1ccccc1)C(=O)O` [H-L-beta-homoPro-Ser(tBu)-Leu-Tyr(tBu)-Phe-OH], the ring closure, isolated yield (19-membered ring) was 0%.

As for `O=C(CNC(=O)[C@@H]1CCCN1)N[C@@H](Cc1ccccc1)C(=O)O` [H-Pro-Gly-Phe-OH], the ring closure, isolated yield (12-membered ring, 4.0 h) was determined as 0%. Turning to `CC(C)C[C@@H](NC(=O)CNC(=O)[C@@H]1CCCN1)C(=O)NCC(=O)N[C@H](CCCCNC(=O)OC(C)(C)C)C(=O)O` [H-Pro-Gly-D-Leu-Gly-D-Lys(Boc)-OH], the ring closure, isolated yield (18-membered ring, 6.0 h) was 0%.

With `CC(C)C[C@H](NC(=O)[C@H](COC(C)(C)C)NC(=O)[C@@H]1CCCN1)C(=O)NCC(=O)N[C@@H](Cc1ccccc1)C(=O)O` [H-Pro-Ser(tBu)-Leu-Gly-Phe-OH], the ring closure, isolated yield (18-membered ring, 4.0 h) worked out at 49%. The same measure, in the same setting: under `CC(C)C[C@@H](NC(=O)CNC(=O)[C@@H]1CCCN1)C(=O)NCC(=O)N[C@@H](Cc1ccccc1)C(=O)O` [H-Pro-Gly-D-Leu-Gly-Phe-OH] stands 28%. Turning to `CC(C)C[C@H](NC(=O)CN(C)C(=O)[C@@H]1CCCN1)C(=O)NCC(=O)N[C@@H](Cc1ccccc1)C(=O)O` [H-Pro-Sar-Leu-Gly-Phe-OH], the ring closure, isolated yield (18-membered ring) was found to be 0%. For `CC(C)C[C@H](NC(=O)[C@H](COC(C)(C)C)NC(=O)[C@@H]1CCCN1)C(=O)N[C@@H](Cc1ccc(OC(C)(C)C)cc1)C(=O)N[C@@H](Cc1ccccc1)C(=O)O` [H-Pro-Ser(tBu)-Leu-Tyr(tBu)-Phe-OH], the ring closure, isolated yield (18-membered ring, 4.0 h) amounted to 22%. `CC(C)C[C@H](NC(=O)CNC(=O)[C@@H]1CCCN1)C(=O)N[C@@H](CCCCNC(=O)OC(C)(C)C)C(=O)O` [H-Pro-Gly-Leu-Lys(Boc)-OH]: under “15-membered ring, 6.0 h”, the ring closure, isolated yield stood at 0%. For the compound `CC(C)C[C@H](NC(=O)[C@H](C)NC(=O)[C@@H]1CCCN1)C(=O)NCC(=O)N[C@@H](Cc1ccccc1)C(=O)O` [H-Pro-Ala-Leu-Gly-Phe-OH], the ring closure, isolated yield (18-membered ring, 4.0 h) is 12%. Turning to `CC(C)C[C@H](NC(=O)[C@H](CC(C)C)N(C)C(=O)[C@@H]1CCCN1)C(=O)NCC(=O)N[C@@H](Cc1ccccc1)C(=O)O` [H-Pro-N-Me-Leu-Leu-Gly-Phe-OH], under “18-membered ring”, the ring closure, isolated yield is 0%. `CC(C)C[C@H](NC(=O)CNC(=O)C[C@@H]1CCCN1)C(=O)NCC(=O)N[C@H](Cc1ccccc1)C(=O)O` [H-L-beta-homoPro-Gly-Leu-Gly-D-Phe-OH]: the ring closure, isolated yield (19-membered ring) was determined as 0%. For `CC(C)C[C@H](NC(=O)CNC(=O)[C@]1(C)CCCN1)C(=O)NCC(=O)N[C@H](Cc1ccccc1)C(=O)O` [H-L-alpha-MePro-Gly-Leu-Gly-D-Phe-OH], the ring closure, isolated yield (18-membered ring) was found to be 0%. For the compound `CC(C)C[C@H](NC(=O)CNC(=O)[C@@H]1CCCN1)C(=O)NCC(=O)N[C@@H](Cc1ccccc1)C(=O)O` [H-Pro-Gly-Leu-Gly-Phe-OH], the ring closure, isolated yield (18-membered ring, 4.0 h) is 34%.

The record behind these values is publication PMC5949604.
